Data taken from patent EP0346068A2, “D-Cys6 vasopressin antagonists” (SMITHKLINE BECKMAN CORPORATION, priority 1988, dated 1989).
Positions of bridges follow the written chain, without caps; N, C: chain ends. No end group written: not given here.

Test system: Adult female mongrel dogs
Assay: Partial agonist screen in indomethacin-treated dogs under water diuresis (urine volume and osmolality)
Assay type: in vivo
Procedure: The compounds are tested for partial agonist activity by the following procedures:
Adult female mongrel dogs are fasted for 18 hours prior to testing. The studies are conducted under steady state water diuresis initiated by a 5% body weight water load and a 3% dextrose infusion. At 0 hour, indomethacin, a cyclooxygenase inhibitor, is administered (2 mg/kg i.v. bolus and 3 mg/kg/hr i.v. infusion). Twenty minutes later, the test compound is administered i.v. Urine volume and osmolality are measured every 10 minutes for 4 hours.
The indomethacin dog model may predict the agonist activity of a compound in man.

In the case of “ADH: the natural anti-diuretic hormone (ADH), vasopressin (CYFQNCPRG-NH2; disulfide 1-6; ends not checked; UniProt P01185 20-28, looked up)”, the “antidiuretic activity (urine osmolality, volume) after treatment with indomethacin” value is reported as “potentiates the antidiuretic activity”.
